Test results taken from US12239652B2, “Composition for preventing or treating muscular diseases, or for improving muscular functions, containing ganglioside” (INDUSTRY-ACADEMIC COOPERATION FOUNDATION, YONSEI UNIVERSITY, priority 2018, dated 2025).

Legend:
p-mTOR = test: Western blot of mRNA translation biomarkers in TNF-α-treated L6 myotubes: p-mTOR; assay type: cell-based; settings: 50 ng/mL TNF-α
Experimental: (§1) L6 myoblasts (ATCC) were seeded with DMEM (Hyclone) supplemented with 10% FBS (Hyclone) in a 6-well plate at a density of 1×10^5 cells/well, followed by culture. When the cultured cells reached a confluency of ˜80-85% per well, the media in the wells were replaced with DMEM (Hyclone) supplemented with 2% HS (Hyclone), followed by culture for additional 6 days to induce differentiation into myotubes. During culture for 6 days, the culture media were changed once every other day a total of 3 times. […] A group treated with 0.01% DMSO instead of the sample was used as a control. Cells were lysed with NP-40 buffer (ELPIS-Biotech, Daej eon, Korea) with a protease inhibitor cocktail (Sigma-Aldrich, St. Louis, MO, USA) and centrifuged at 13,000 rpm for 10 min. The cell lysate was obtained from the supernatant. The concentration of proteins in the supernatant was determined by the Bradford method (Bio-Rad Laboratories Inc.). Proteins at a certain concentration were heated for 5 min and separated by SDS-PAGE electrophoresis. The separated proteins were transferred to nitrocellulose membranes. Then, p-mTOR, mTOR, p-p70S6K, p70S6K, p-4EBP1, 4EBP1, and alpha-tubulin primary antibodies (Cell signaling technology, Beverly, MA, USA) were diluted at a ratio of 1:1000 with 2.5% bovine serum albumin (BSA; Bioworld, Dubin, OH, USA) and incubated with the proteins transferred to the nitrocellulose membranes at room temperature for 20 h. After incubation of the primary antibodies, the nitrocellulose membranes were washed 3 times with Tris-buffer saline Tween 20 (TBST) for 10 min. After washing, an anti-rabbit secondary antibody (Bethyl Laboratories, Inc., Montgomery, TA, USA) conjugated with horseradish peroxidase recognizing the primary antibodies was diluted 1:5000 with 2.5% BSA (Bioworld) and incubated with the nitrocellulose membranes at room temperature for 2 h. […]
(§2) Protein bands detected through antibody binding were developed using an ECL western blot detection reagent (Amersham, Tokyo, Japan) and visualized using a G;BOX EF imaging system (Syngene, Cambridge, UK). […]

p-4EBP1 = test: Western blot of mRNA translation biomarkers in TNF-α-treated L6 myotubes: p-4EBP1; assay type: cell-based; settings: 50 ng/mL TNF-α
Experimental: as §1, §2

atrogin-1 = test: RT-PCR of muscle degrading protein mRNA in TNF-α-treated L6 myotubes: atrogin-1; assay type: cell-based; settings: 50 ng/mL TNF-α
Experimental: (§3) L6 myoblasts (ATCC) were seeded with DMEM (Hyclone) supplemented with 10% FBS (Hyclone) in a 6-well plate at a density of 1×10^5 cells/well, followed by culture. When the cultured cells reached a confluency of ˜80-85% per well, the media in the wells were replaced with DMEM (Hyclone) supplemented with 2% HS (Hyclone), followed by culture for additional 6 days to induce differentiation into myotubes. During culture for 6 days, the culture media were changed once every other day a total of 3 times. The differentiation-induced cells were harvested and the cell media were replaced with DMEM supplemented with 50 ng/mL TNF-α (PeproTech) in which ganglioside GM3 (Cayman) was dissolved at a concentration of 1 μM or 5 μM. A group treated with 0.01% DMSO instead of the sample was used as a control. Total RNA was isolated from cells using TRIzol reagent (Takara, Kyoto, Japan). The isolated total RNA was quantified using NanoDrop 1000 (Thermo Fisher Scientific Inc., Waltham, MA, USA). 16 μL of the RNA was synthesized into cDNA using Reverse Transcriptase Premix (ELPIS-Biotech) and a PCR system (Gene Amp PCR System 2700; Applied Biosystems, Foster City, CA, USA) at 42° C. for 55 min and 70° C. for 15 min. 3 μL of the synthesized cDNA, the specific primers shown in Table 1 (Bioneer, Daej eon, Korea), and PCR premix (ELPIS-Biotech) were mixed and PCR was repeated 30 times at 95° C. for 30 sec, 60° C. for 1 min, and 72° C. for 1 min. After PCR amplification, cDNA was separated by electrophoresis on a 1.5% agarose gel and the cDNA bands were visualized using a G;BOX EF imaging system (Syngene).
(§4) The procedure of Example 8 was repeated except that cells were treated with ganglioside GM1 (Cayman) at a concentration of 15 μM or 25 μM to investigate the mRNA transcription and expression levels of atrogin-1 and MuRF1 as muscle degrading proteins.
(§5) The procedure of Example 8 was repeated except that cells were treated with ganglioside GD1a (Cayman) at a concentration of 1 μM or 3 μM to investigate the mRNA transcription and expression levels of atrogin-1 and MuRF1 as muscle protein degradation-related enzymes.
(§6) The procedure of Example 8 was repeated except that cells were treated with each of gangliosides GT1b and GQ1b (Cayman) at a concentration of 1 μM to investigate the mRNA transcription and expression levels of atrogin-1 and MuRF1 as muscle protein degradation-related enzymes.

mTOR = mTOR Sandwich ELISA in L6 myotubes (activity for myogenic induction); assay type: cell-based; settings: 12-h culture, *P<0.05
Experimental: The mTOR protein is known to induce the activation of proteins involved in muscle protein synthesis and an increase in muscle mass in the PI3K/Akt signaling pathway in muscle cells when phosphorylated and activated. Thus, the activity of mTOR was confirmed using an mTOR Sandwich ELISA kit (Cell Signaling Technology, Beverly, MA, USA) to determine the activity of ganglioside GM3 for myogenic induction.
L6 myoblasts (ATCC; Manassas, VA, USA) were seeded with Dulbecco's modified Eagle's media (DMEM; Hyclone) supplemented with 10% fetal bovine serum (FBS; Hyclone, Logan, UT, USA) in a 6-well plate at a density of 1×10^5 cells/well, followed by culture for 24 h. The media in the wells were replaced with DMEM (Hyclone) supplemented with 2% horse serum (HS; Hyclone), followed by culture for additional 6 days to differentiate the L6 cells into myotubes. Then, cells were treated with ganglioside GM3 (Cayman, Ann Arbor, MI, USA) at a concentration of 1 μM or 5 μM. After 12-h culture, cells were lysed by treatment with a cell lysis buffer. Proteins in the cell lysate were quantified by the Bradford method (Bio-Rad Laboratories Inc., Hercules, CA, USA) and the concentration of the cell lysate was then adjusted to 1 mg/mL. The cell lysate was plated in microwells bound with anti-mTOR antibody (50 μL/well) and cultured at 37° C. for 2 h. Cells were washed a total of 4 times with a washing buffer, treated with a detection antibody, and cultured at 37° C. for 1 h, rewashed a total of 4 times with a washing buffer, added with a horseradish peroxidase (HRP)-conjugated secondary antibody, and cultured at 37° C. for 30 min. Finally, after washing a total of 4 times with a washing buffer, TMB substrate was added to each well. After culture at 37° C. for 10 min, a stop solution was added to stop the TMB reaction. 2 min later, absorbance was measured at a wavelength of 450 nm to determine the level of mTOR in the myotubes treated with ganglioside GM3.
The procedure of Example 1 was repeated except that cells were treated with ganglioside GM1 (Cayman) at a concentration of 15 μM or 25 μM to examine the activity of the ganglioside for myogenic induction.
The procedure of Example 1 was repeated except that cells were treated with ganglioside GD1a (Cayman) at a concentration of 1 μM or 3 μM to examine the activity of the ganglioside for myogenic induction.
The procedure of Example 1 was repeated except that cells were treated with each of gangliosides GT1b and GQ1b (Cayman) at a concentration of 1 μM to examine the activity of the ganglioside for myogenic induction.

Wistar rats = test: Muscle mass (soleus weight) in TNF-α-induced muscular atrophy animal model; assay type: in vivo; settings: 50 mg/kg body weight once a day for 8 weeks; for Average soleus weight: right soleus, control 416.0 ± 19.57
Experimental: Wistar rats, aged five weeks, were acclimatized for one week and supplied with 100 ng/g of TNF-α for 2 weeks to induce muscular atrophy. The animals were randomly divided into a total of 5 groups, 8 animals per group, depending on their weight. Each of gangliosides GM3, GM1, GD1a, GT1b, and GQ1b (each 50 mg/kg body weight) as experimental groups was suspended in 0.25% carboxymethylcellulose. The suspension was administered at a given time once a day for 8 weeks. A group administered the same amounts of 0.25% carboxymethyl cellulose and TNF-α ingested by each experimental group was used as a control.
After administration of the sample for 8 weeks, the right soleus was dissected and its weight was measured with a microbalance (Mettler PE160, USA).

p-p70S6K = test: Western blot of mRNA translation biomarkers in TNF-α-treated L6 myotubes: p-p70S6K; assay type: cell-based; settings: 50 ng/mL TNF-α
Experimental: as §1, §2

MuRF1 = test: RT-PCR of muscle degrading protein mRNA in TNF-α-treated L6 myotubes: MuRF1; assay type: cell-based; settings: 50 ng/mL TNF-α
Experimental: as §3, §4, §5, §6

Compound	expression level of phosphorylated p-mTOR in L6 muscle cells (p-mTOR; 1 μM or 3 μM)	expression level of phosphorylated p-4EBP1 in L6 muscle cells (p-4EBP1; 1 μM or 3 μM)	mRNA expression level of atrogin-1 in L6 muscle cells (atrogin-1; 1 μM or 3 μM)	activity of mTOR in L6 muscle cells (mTOR; 1 μM or 3 μM)	increase of muscle (soleus) weight compared to the control group (Wistar rats) [%]	Average soleus weight (Wistar rats) [mg]	expression level of phosphorylated p-P70S6K in L6 muscle cells (p-p70S6K; 1 μM or 3 μM)	mRNA expression level of MuRF1 in L6 muscle cells (MuRF1; 1 μM or 3 μM)	expression level of phosphorylated p-mTOR in L6 muscle cells (p-mTOR; 15 μM or 25 μM)	expression level of phosphorylated p-4EBP1 in L6 muscle cells (p-4EBP1; 15 μM or 25 μM)	mRNA expression level of atrogin-1 in L6 muscle cells (atrogin-1; 15 μM or 25 μM)	activity of mTOR in L6 muscle cells (mTOR; 15 μM or 25 μM)	expression level of phosphorylated p-P70S6K in L6 muscle cells (p-p70S6K; 15 μM or 25 μM)	mRNA expression level of MuRF1 in L6 muscle cells (MuRF1; 15 μM or 25 μM)	expression level of phosphorylated p-mTOR in L6 muscle cells (p-mTOR; 1 μM or 5 μM)	expression level of phosphorylated p-4EBP1 in L6 muscle cells (p-4EBP1; 1 μM or 5 μM)	mRNA expression level of atrogin-1 in L6 muscle cells (atrogin-1; 1 μM or 5 μM)	activity of mTOR in L6 muscle cells (mTOR; 1 μM or 5 μM)	expression level of phosphorylated p-P70S6K in L6 muscle cells (p-p70S6K; 1 μM or 5 μM)	mRNA expression level of MuRF1 in L6 muscle cells (MuRF1; 1 μM or 5 μM)
CCCCCCCCCCCCC/C=C/[C@@H](O)[C@H](CO[C@@H]1OC(CO)[C@@H](O[C@@H]2OC(CO)[C@H](O[C@H]3OC(CO)[C@H](O)C(O[C@@H]4OC(CO)[C@H](O[C@]5(C(=O)O)CC(O)[C@@H](NC(C)=O)C([C@@H](O)[C@H](O)CO)O5)C(O)C4O)C3NC(C)=O)C(O[C@]3(C(=O)O)CC(O)[C@@H](NC(C)=O)C([C@@H](O)[C@H](O)CO)O3)C2O)C(O)C1O)NC(=O)CCCCCCCCCCCCCCCCC (stereo partly drawn) [Ganglioside GD1a, ganglioside GD1a]	increased	increased	reduced	significantly increased	17.79	490.0 ± 22.8	increased	reduced												
CCCCCCCCCCCCC/C=C/[C@@H](O)[C@H](CO[C@@H]1O[C@H](CO)[C@@H](O[C@@H]2O[C@H](CO)[C@H](O[C@@H]3O[C@H](CO)[C@H](O)[C@H](O[C@@H]4O[C@H](CO)[C@H](O)[C@H](O)[C@H]4O)[C@H]3NC(C)=O)[C@H](O[C@]3(C(=O)O)C[C@H](O)[C@@H](NC(C)=O)[C@H]([C@H](O)[C@H](O)CO)O3)[C@H]2O)[C@H](O)[C@H]1O)NC(=O)CCCCCCCCCCCCCCCCC [Ganglioside GM1, ganglioside GM1]					22.11	508.0 ± 19.8			increased	increased	reduced	significantly increased	increased	reduced						
CCCCCCCCCCCCC/C=C/[C@@H](O)[C@H](CO[C@@H]1OC(CO)[C@@H](O[C@@H]2OC(CO)[C@@H](O)C(O[C@]3(C(=O)O)CC(O)[C@@H](NC(C)=O)C([C@@H](O)[C@H](O)CO)O3)C2O)C(O)C1O)NC(=O)CCCCCCCCCCCCCCCCC (stereo partly drawn) [Ganglioside GM3, ganglioside GM3]					23.56	514.0 ± 18.4									increased	increased	reduced	significantly increased	increased	reduced
